Data taken from patent US11180509B2, “Thiazolidone spiro pyrimidine trione compound, preparation method therefor and uses thereof” (SHANGHAI INSTITUTE OF MATERIA MEDICA, CHINESE ACADEMY OF …, priority 2017, dated 2021).
Values after ≈ are worked out from the molar mass of the structure shown. Read-outs that look alike come from different tables or passages of the source.

What was measured:
Streptococcus pyogenes = experiment: In vitro antibacterial activity, MIC by micro broth dilution; assay type: cell-based; conditions: read-out: MIC Spy
Source text: (§1) The following strains isolated in clinic were used in antibacterial activity screening in vitro: five strains of methicillin-resistant Staphylococcus aureus or MRSA, five strains of methicillin-sensitive Staphylococcus aureus or MSSA, five strains of methicillin-resistant Staphylococcus epidermidis or MRSE, five strains of methicillin-sensitive Staphylococcus epidermidis or MSSE, three strains of penicillin-resistant Streptococcus pneumoniae or PRSP, and three strains of Streptococcus pyogenes.
(§2) The above strains were clinically isolated pathogenic bacteria collected in Sichuan and Beijing in December 2015. They were identified by the collection unit via a VITEK-60 automatic microbiological identification instrument, and then re-identified by conventional methods in the laboratory. Before the experiment, each strain was purified by a single colony on an agar plate, and the cells freshly cultured at 37° C. overnight were appropriately diluted for the experiment. Quality control strain was Staphylococcus aureus ATCC25923 purchased from the Clinical Testing Center of the Ministry of Health of the People's Republic of China.
(§3) Medium: MH (Mueller-Hinton, hydrolyzed casein) broth (OXOID);
(§4) Culture condition: Incubate at 35-37° C. for 16-18 h.
(§5) The MIC value of each test sample for the tested strain was determined by micro broth dilution method recommended by Performance Standards for Antimicrobial Susceptibility Testing (Twenty-Third Informational Supplement; M02-A11, M07-A9 and M11-A8, 2013) of American Clinical and Laboratory Standards Institute (CLSI).
(§6) After diluting each test sample to different concentrations in MH broth, 100 μl of each sample solution at different concentrations was pipetted into a sterilized 96-well polystyrene plate. In the first to twelfth wells, the drug solution was added, and the final drug concentrations in each well were 64, 32, 16, 8, 4, 2, 1, 0.5, 0.25, 0.125, 0.06, and 0.03 mg/L. The well without drug and without bacteria was set as blank control well. The well with bacteria and without drug was set as a bacterial growth control well.
(§7) The test bacterial solution was adjusted with physiological saline to a bacterial suspension equivalent to 0.5 Maisson turbidity standard, and diluted 1:100 with MH broth. The drug solution was added so that the final concentration of the bacterial solution was about 10^4 CFU/ml; then 100 μl of bacterial solution was pipetted into the above wells (the total volume in each well was 200 μl). The plate was sealed and placed in a 35-37° C. incubator for 18-20 h, and then the results were determined. […] When Streptococcus pneumoniae was tested, sterile defibrillated sheep blood was added into the Colombian broth culture medium at a final concentration of 5% and cultivation was conducted in a 5% CO2 and 35-37° C. incubator for 18-20 hours.

[1] = system: methicillin-resistant Staphylococcus aureus or MRSA; experiment: as above; assay type: cell-based; conditions: read-out: MIC MRSA
Source text: as §1, §2, §3, §4, §5, §6, §7

[2] = system: methicillin-resistant Staphylococcus epidermidis or MRSE; experiment: as above; assay type: cell-based; conditions: read-out: MIC MRSE
Source text: as §1, §2, §3, §4, §5, §6, §7

[3] = system: methicillin-sensitive Staphylococcus aureus or MSSA; experiment: as above; assay type: cell-based; conditions: read-out: MIC MSSA
Source text: as §1, §2, §3, §4, §5, §6, §7

[4] = system: methicillin-sensitive Staphylococcus epidermidis or MSSE; experiment: as above; assay type: cell-based; conditions: read-out: MIC MSSE
Source text: as §1, §2, §3, §4, §5, §6, §7

[5] = system: penicillin-resistant Streptococcus pneumoniae or PRSP; experiment: as above; assay type: cell-based; conditions: read-out: MIC PRSP
Source text: as §1, §2, §3, §4, §5, §6, §7

[6] = In vivo pharmacokinetics test in mice (oral); parameters: species or system CD-1 mice; conditions: PO 10.0 mg/kg; for AUC0→t / Cmax / MRT / t1/2 / Tmax: plasma; for Tmax: female, CD-1, mouse, read-out: Tmax
Description: Healthy female CD-1 mice were randomly divided into five groups and each group comprised three mice. The tested compound was administered orally.
0.030 mL of blood was taken from the orbit of each animal each time and anticoagulated with EDTAK2. The collection time was as follows. PO group: 15 m, 30 mi, 1 h, 2 h, 4 h, 6 h, 8 h, and 24 h after administration of the test compound. The collected blood samples were placed on ice and centrifuged within 30 minutes to separate the plasma (centrifugation conditions: 5000 rpm, 10 minutes, room temperature). The samples were stored at −80° C. before analysis.

[7] = system: MRSA, MSSA, MRSE, MSSE, PRSP, and Spy; experiment: In vitro antibacterial activity over the whole strain panel, compared with AZD0914; assay type: cell-based; conditions: against MRSA
Source text: as §1, §2, §5, §6, §7

[8] = 3 clinical strains, range over strains

Structure (SMILES) | MIC (Streptococcus pyogenes) | MIC [1] | MIC [2] | MIC [3] | MIC [4] | MIC [5] | AUC0→t relative to AZD0914 ([6]; multiple of the AZD0914 value) | Cmax relative to AZD0914 ([6]; multiple of the AZD0914 value) | AUC0→t [6] | Cmax [6] | MRT [6] | t1/2 [6] | Tmax [6] | in vitro antibacterial activity relative to AZD0914 [7] | MIC (Streptococcus pyogenes; [8]) | MIC ([4]; 5 clinical strains, range over strains) | MIC [5, 8]
C[C@@H]1CN2c3c(cc4c(N5C[C@H](CN=[N+]=[N-])SC5=O)noc4c3F)CC3(C(=O)NC(=O)NC3=O)[C@H]2[C@H](C)O1 [Compound 10, (2R,4S,4aS)-8-((R)-5-(azidomethyl)-2-oxothiazol-3-yl)-11-fluoro-2,4-dimethyl-1,2,4,4a-tetrahydro-2′H,6H-spiro[isoxazole[4,5-g][1,4]oxazine[4,3-a]quinoline-5,5′-pyrimidine]-2′,4′,6′(1′H,3′H)-trione] | 0.125 to 1 µg/mL (≈ 0.23 to 1.84 µM) | 0.25 to 0.5 µg/mL (≈ 0.459 to 0.918 µM) | 0.03 to 0.125 µg/mL (≈ 0.0551 to 0.23 µM) | 0.06 to 0.25 µg/mL (≈ 0.11 to 0.459 µM) | 0.03 to 0.25 µg/mL (≈ 0.0551 to 0.459 µM) | 0.125 µg/mL (≈ 0.23 µM) |  |  |  |  |  |  |  |  |  |  | 
C[C@@H]1CN2c3c(cc4c(N5C[C@H](CF)SC5=O)noc4c3F)CC3(C(=O)NC(=O)NC3=O)[C@H]2[C@H](C)O1 [Compound 6] | 0.03 to 0.06 µg/mL (≈ 0.0575 to 0.115 µM) | 0.03 to 1 µg/mL (≈ 0.0575 to 1.92 µM) | 0.03 to 0.06 µg/mL (≈ 0.0575 to 0.115 µM) | 0.06 to 0.125 µg/mL (≈ 0.115 to 0.24 µM) | < 0.03 µg/mL | 0.06 to 0.25 µg/mL (≈ 0.115 to 0.479 µM) |  |  |  |  |  |  |  |  |  |  | 
COC[C@H]1CN(c2noc3c(F)c4c(cc23)CC2(C(=O)NC(=O)NC2=O)[C@H]2[C@H](C)O[C@H](C)CN42)C(=O)S1 [Compound 8, (2R,4S,4aS)-11-fluoro-8-((R)-5-(methoxymethyl)-2-oxothiazolin-3-yl)-2,4-dimethyl-1,2,4,4a-tetrahydro-2′H,6H-spiro[isoxazole[4,5-g][1,4]oxazine[4,3-a]quinoline-5,5′-pyrimidine]-2′,4′,6′(1′H,3′H)-trione] | 0.25 to 0.5 µg/mL (≈ 0.469 to 0.937 µM) | 0.03 to 0.5 µg/mL (≈ 0.0562 to 0.937 µM) | 0.03 µg/mL (≈ 0.0562 µM) | 0.03 to 0.25 µg/mL (≈ 0.0562 to 0.469 µM) | 0.03 to 0.125 µg/mL (≈ 0.0562 to 0.234 µM) | 0.03 to 0.5 µg/mL (≈ 0.0562 to 0.937 µM) | ~11 times) | ~11 times) | 8240 ± 940 ng·h/mL | 2051 ± 88 ng/mL | 3.72 ± 0.76 h | 2.51 ± 0.08 h | 0.583 ± 0.382 h |  |  |  | 
CC[C@H]1CN(c2noc3c(F)c4c(cc23)CC2(C(=O)NC(=O)NC2=O)[C@H]2[C@H](C)O[C@H](C)CN42)C(=O)S1 [Compound 19, (2R,4S,4aS)-8-((S)-5-ethyl-2-oxothiazol-3-yl)-11-fluoro-2,4-dimethyl-1,2,4,4a-tetrahydro-2′H,6H-spiro[isoxazole[4,5-g][1,4]oxazine[4,3-a]quinoline-5,5′-pyrimidine]-2′,4′,6′(1′H,3′H)-trione] | < 0.03 µg/mL | < 0.03 µg/mL | < 0.03 µg/mL | < 0.03 µg/mL | 0.03 to 0.06 µg/mL (≈ 0.058 to 0.116 µM) | 0.03 to 0.06 µg/mL (≈ 0.058 to 0.116 µM) |  |  |  |  |  |  |  | about 8 times |  |  | 
C[C@H]1COc2c(N3CCN(C)CC3)c(F)cc3c(=O)c(C(=O)O)cn1c23 [levofloxacin, reference compound] |  |  |  |  |  |  |  |  |  |  |  |  |  |  | 0.5 to 1 µg/mL (≈ 1.38 to 2.77 µM) | 0.5 to 4 µg/mL (≈ 1.38 to 11.1 µM) | 1 µg/mL (≈ 2.77 µM)
C[C@@H]1CN2c3c(cc4c(N5C(=O)SC[C@H]5C)noc4c3F)CC3(C(=O)NC(=O)NC3=O)[C@H]2[C@H](C)O1 [Compound 4, (2R,4S,4aS)-11-fluoro-2,4-dimethyl-8-((R)-4-methyl-2-oxothiazolin-3-yl)-1,2,4,4a-tetrahydro-2′H,6H-spiro[isoxazole[4,5-g][1,4]oxazine[4,3-a]quinoline-5,5′-pyrimidine]-2′,4′,6′(1′H,3′H)-trione] | 0.125 to 0.25 µg/mL (≈ 0.248 to 0.497 µM) | 0.03 to 0.5 µg/mL (≈ 0.0596 to 0.993 µM) | 0.03 to 0.125 µg/mL (≈ 0.0596 to 0.248 µM) | 0.25 to 0.5 µg/mL (≈ 0.497 to 0.993 µM) | 0.03 to 0.125 µg/mL (≈ 0.0596 to 0.248 µM) | 0.25 to 1 µg/mL (≈ 0.497 to 1.99 µM) |  |  |  |  |  |  |  |  |  |  | 
C=C1CN(c2noc3c(F)c4c(cc23)CC2(C(=O)NC(=O)NC2=O)[C@H]2[C@H](C)O[C@H](C)CN42)C(=O)S1 [Compound 25, (2R,4S,4aS)-11-fluoro-2,4-dimethyl-8-(5-methylene-2-oxothiazol-3-yl)-1,2,4,4a-tetrahydro-2′H,6H-spiro[isoxazole[4,5-g][1,4]oxazine[4,3-a]quinoline-5,5′-pyrimidine]-2′,4′,6′(1′H, 3′H)-trione] | < 0.03 µg/mL | < 0.03 µg/mL | < 0.03 µg/mL | < 0.03 µg/mL | < 0.03 µg/mL | < 0.03 µg/mL |  |  |  |  |  |  |  | about 8 times |  |  | 
C[C@@H]1CN2c3c(cc4c(N5C(=O)S[C@@H]6CCC[C@@H]65)noc4c3F)CC3(C(=O)NC(=O)NC3=O)[C@H]2[C@H](C)O1 [Compound 21, (2R,4S,4aS)-11-fluoro-2,4-dimethyl-8-((3aS,6aR)-2-oxotetrahydro-2H-cyclopentane[d]thiazol-3(3aH)-yl)-1,2,4,4a-tetrahydro-2′H,6H-spiro[isoxazole[4,5-g][1,4]oxazine [4,3-a]quinoline-5,5′-pyrimidine]-2′,4′,6′(1′H,3′H)-trione] | 0.03 to 0.125 µg/mL (≈ 0.0567 to 0.236 µM) | 0.03 to 0.125 µg/mL (≈ 0.0567 to 0.236 µM) | 0.03 to 0.06 µg/mL (≈ 0.0567 to 0.113 µM) | 0.03 to 0.125 µg/mL (≈ 0.0567 to 0.236 µM) | 0.03 to 0.125 µg/mL (≈ 0.0567 to 0.236 µM) | 0.03 to 0.125 µg/mL (≈ 0.0567 to 0.236 µM) |  |  |  |  |  |  |  |  |  |  | 
C[C@@H]1CN2c3c(cc4c(N5C[C@@H](C)SC5=O)noc4c3F)CC3(C(=O)NC(=O)NC3=O)[C@H]2[C@H](C)O1 [Compound 3, (2R,4S,4aS)-11-fluoro-2,4-dimethyl-8-((R)-5-methyl-2-oxothiazolin-3-yl)-1,2,4,4a-tetrahydro-2′H,6H-spiro[isoxazole[4,5-g][1,4]oxazine[4,3-a]quinoline-5,5′-pyrimidine]-2′,4′,6′(1′H,3′H)-trione] | < 0.03 µg/mL | 0.03 to 0.25 µg/mL (≈ 0.0596 to 0.497 µM) | 0.03 to 0.06 µg/mL (≈ 0.0596 to 0.119 µM) | 0.03 to 0.125 µg/mL (≈ 0.0596 to 0.248 µM) | 0.03 to 0.06 µg/mL (≈ 0.0596 to 0.119 µM) | 0.03 µg/mL (≈ 0.0596 µM) |  |  | 12034 ± 2835 ng·h/mL | 2188 ± 223 ng/mL | 4.85 ± 0.99 h | 2.70 ± 0.143 h | 0.583 ± 0.382 h |  |  |  | 
C[C@@H]1CN2c3c(cc4c(N5C(=O)SC[C@@H]5C)noc4c3F)CC3(C(=O)NC(=O)NC3=O)[C@H]2[C@H](C)O1 [Compound 5, (2R,4S,4aS)-11-fluoro-2,4-dimethyl-8-((S)-4-methyl-2-oxothiazolin-3-yl)-1,2,4,4a-tetrahydro-2′H,6H-spiro[isoxazole[4,5-g][1,4]oxazine[4,3-a]quinoline-5,5′-pyrimidine]-2′,4′,6′(1′H,3′H)-trione] | 0.125 to 0.25 µg/mL (≈ 0.248 to 0.497 µM) | 0.03 to 0.25 µg/mL (≈ 0.0596 to 0.497 µM) | 0.06 to 0.25 µg/mL (≈ 0.119 to 0.497 µM) | 0.25 to 0.5 µg/mL (≈ 0.497 to 0.993 µM) | 0.03 to 0.125 µg/mL (≈ 0.0596 to 0.248 µM) | 0.125 to 1 µg/mL (≈ 0.248 to 1.99 µM) |  |  |  |  |  |  |  |  |  |  | 
